Assay: Small volume in vitro release test in 50 ml 0.1N HCl
Assay type: physicochemical
Conditions: 37° C., 150 rpm
Protocol: The formulations were tested for their small volume in vitro release characteristics in 50 ml 0.1N HCl at 37° C. and 150 rpm using the following procedure: III. Instrumentation (or Equivalent) a. Automated Dissolution System comprising: Hanson SR8 Plus Test Station Hanson Auto Plus Maximiser System Controller Hanson Auto Plus MultiFill Fraction Collector b. HPLC System comprising: pump—Merck Hitachi L-7100 autoinjector—Merck Hitachi L-7200 column oven—Merck Hitachi L-7300 detector—Merck Hitachi L-7400 interface and integration software—Merck Hitachi D-7000
0.1N HCl Preparation Dilute 8.5 ml HCl 37% to 1 liter with purified water. Procedure Place one weighed capsule in each vessel containing 0.1N HCl and immediately operate the apparatus for 30 min. Unless otherwise specified, 3 ml samples are withdrawn from each vessel and immediately filtered through PTFE membranes at 15 and 30 min.
The small volume was chosen as a model of the conditions in a fasted stomach.

CC(C)OC(=O)C(C)(C)Oc1ccc(C(=O)c2ccc(Cl)cc2)cc1 [Micronized Fenofibrate]
dissolution under small volume conditions (in words): no dissolution at all

Reference: patent US20060222707A1 (priority 2005, published 2006)
